Test results taken from patent US10668040B2, “Treatment of urea cycle disorders in neonates and infants” (Horizon Therapeutics, LLC, priority 2017, dated 2020).

Tested on: UCD patients
Experiment: Example 3: TEAEs, serious and non-serious adverse events
Format: in vivo
Source text: Sixteen newborn infants aged 0 to 27 days, and 10 infants and toddlers aged 28 days to 23 months received RAVICTI Oral Liquid administered just prior to breastfeeding or intake of formula or food. The recommended dosing regimen was 3-6 times per day depending on feeding schedule.
Number of Subjects with Treatment-Emergent Adverse Events (TEAEs), Serious TEAEs, Deaths, and Discontinuations Due to TEAEs
An adverse event (AE) is any untoward medical occurrence, whether or not the event is considered related to the study drug. A serious AE is any AE that: results in death; is life threatening; requires hospitalization or prolongation of existing hospitalization; results in disability/incapacity; is a congenital anomaly/birth defect; is an important medical event. TEAEs are defined as AEs with an onset date on or after the first dose of study medication until study discontinuation. The Investigator assessed the causal relationship of each TEAE to the study drug as not related, possibly related, or probably related. From the first dose of study treatment through 30 days after the final dose (mean [SD] duration of treatment was 9.13 [6.838] months).

In the case of `O=C(CCCc1ccccc1)OCC(COC(=O)CCCc1ccccc1)OC(=O)CCCc1ccccc1` [RAVICTI, benzenebutanoic acid, 1′,1″-(1,2,3-propanetriyl) ester], the “Number of Deaths (All Causes)” value (Age 0 to <2 Months) is reported as 0, the “Serious AE Ammonia Increased: Deaths causally related to treatment/all” value (Age 0 to <2 Months) is reported as 0/0 and the “Serious AE Ammonia Increased: Occurrences causally related to treatment/all” value (Age 0 to <2 Months) is reported as 0/0. For the same molecule, the “Serious AE Apnoeic Attack: Deaths causally related to treatment/all” value (Age 0 to <2 Months) was 0/0, the “Serious AE Apnoeic Attack: Occurrences causally related to treatment/all” value (Age 0 to <2 Months) was 0/0 and the “Serious AE Asthma: Deaths causally related to treatment/all” value (Age 0 to <2 Months) was 0/0. The “Serious AE Asthma: Occurrences causally related to treatment/all” value (Age 0 to <2 Months) was 0/0, the “Serious AE Atelectasis: Deaths causally related to treatment/all” value (Age 0 to <2 Months) was 0/0 and the “Serious AE Atelectasis: Occurrences causally related to treatment/all” value (Age 0 to <2 Months) was 0/1. The “Serious AE Bacteraemia: Deaths causally related to treatment/all” value (Age 0 to <2 Months) was 0/0, the “Serious AE Bacteraemia: Occurrences causally related to treatment/all” value (Age 0 to <2 Months) was 0/1 and the “Serious AE Cellulitis: Deaths causally related to treatment/all” value (Age 0 to <2 Months) was 0/0. For the same molecule, the “Serious AE Cellulitis: Occurrences causally related to treatment/all” value (Age 0 to <2 Months) was 0/1, the “Serious AE Croup infectious: Deaths causally related to treatment/all” value (Age 0 to <2 Months) was 0/0 and the “Serious AE Croup infectious: Occurrences causally related to treatment/all” value (Age 0 to <2 Months) was 0/1. The “Serious AE Cyanosis: Deaths causally related to treatment/all” value (Age 0 to <2 Months) was 0/0, the “Serious AE Cyanosis: Occurrences causally related to treatment/all” value (Age 0 to <2 Months) was 0/0 and the “Serious AE Dehydration: Deaths causally related to treatment/all” value (Age 0 to <2 Months) was 0/0. For the same molecule, the “Serious AE Dehydration: Occurrences causally related to treatment/all” value (Age 0 to <2 Months) was 0/1, the “Serious AE Device related infection: Deaths causally related to treatment/all” value (Age 0 to <2 Months) was 0/0 and the “Serious AE Device related infection: Occurrences causally related to treatment/all” value (Age 0 to <2 Months) was 0/1. The “Serious AE Feeding Disorder: Deaths causally related to treatment/all” value (Age 0 to <2 Months) was 0/0, the “Serious AE Feeding Disorder: Occurrences causally related to treatment/all” value (Age 0 to <2 Months) was 0/1 and the “Serious AE Gastroenteritis: Deaths causally related to treatment/all” value (Age 0 to <2 Months) was 0/0. For the same molecule, the “Serious AE Gastroenteritis: Occurrences causally related to treatment/all” value (Age 0 to <2 Months) was 0/0, the “Serious AE Hyperammonaemia: Deaths causally related to treatment/all” value (Age 0 to <2 Months) was 0/0 and the “Serious AE Hyperammonaemia: Occurrences causally related to treatment/all” value (Age 0 to <2 Months) was 0/7. The “Serious AE Influenza: Deaths causally related to treatment/all” value (Age 0 to <2 Months) was 0/0, the “Serious AE Influenza: Occurrences causally related to treatment/all” value (Age 0 to <2 Months) was 0/0 and the “Serious AE Lethargy: Deaths causally related to treatment/all” value (Age 0 to <2 Months) was 0/0. For the same molecule, the “Serious AE Lethargy: Occurrences causally related to treatment/all” value (Age 0 to <2 Months) was 0/1, the “Serious AE Medical device site infection: Deaths causally related to treatment/all” value (Age 0 to <2 Months) was 0/0 and the “Serious AE Medical device site infection: Occurrences causally related to treatment/all” value (Age 0 to <2 Months) was 0/1. For the same molecule, the “Serious AE Meningitis bacterial: Deaths causally related to treatment/all” value (Age 0 to <2 Months) was 0/0, the “Serious AE Meningitis bacterial: Occurrences causally related to treatment/all” value (Age 0 to <2 Months) was 0/1 and the “Serious AE Neutropenia: Deaths causally related to treatment/all” value (Age 0 to <2 Months) was 0/0. For the same molecule, the “Serious AE Neutropenia: Occurrences causally related to treatment/all” value (Age 0 to <2 Months) was 0/1, the “Serious AE Peritonitis: Deaths causally related to treatment/all” value (Age 0 to <2 Months) was 0/0 and the “Serious AE Peritonitis: Occurrences causally related to treatment/all” value (Age 0 to <2 Months) was 0/0. For the same molecule, the “Serious AE Pneumatosis intestinalis: Deaths causally related to treatment/all” value (Age 0 to <2 Months) was 0/0, the “Serious AE Pneumatosis intestinalis: Occurrences causally related to treatment/all” value (Age 0 to <2 Months) was 0/0 and the “Serious AE Pyrexia: Deaths causally related to treatment/all” value (Age 0 to <2 Months) was 0/0. For the same molecule, the “Serious AE Pyrexia: Occurrences causally related to treatment/all” value (Age 0 to <2 Months) was 0/0, the “Serious AE Respiratory syncytial virus infection: Deaths causally related to treatment/all” value (Age 0 to <2 Months) was 0/0 and the “Serious AE Respiratory syncytial virus infection: Occurrences causally related to treatment/all” value (Age 0 to <2 Months) was 0/1. For the same molecule, the “Serious AE Rhinovirus infection: Deaths causally related to treatment/all” value (Age 0 to <2 Months) was 0/0, the “Serious AE Rhinovirus infection: Occurrences causally related to treatment/all” value (Age 0 to <2 Months) was 0/0 and the “Serious AE Status asthmaticus: Deaths causally related to treatment/all” value (Age 0 to <2 Months) was 0/0. The “Serious AE Status asthmaticus: Occurrences causally related to treatment/all” value (Age 0 to <2 Months) was 0/0, the “Serious AE Tracheitis: Deaths causally related to treatment/all” value (Age 0 to <2 Months) was 0/0 and the “Serious AE Tracheitis: Occurrences causally related to treatment/all” value (Age 0 to <2 Months) was 0/1. For the same molecule, the “Serious AE Upper respiratory tract infection: Deaths causally related to treatment/all” value (Age 0 to <2 Months) was 0/0, the “Serious AE Upper respiratory tract infection: Occurrences causally related to treatment/all” value (Age 0 to <2 Months) was 0/1 and the “Serious AE Urinary tract infection: Deaths causally related to treatment/all” value (Age 0 to <2 Months) was 0/0. The “Serious AE Urinary tract infection: Occurrences causally related to treatment/all” value (Age 0 to <2 Months) was 0/1, the “Serious AE Viral infection: Deaths causally related to treatment/all” value (Age 0 to <2 Months) was 0/0 and the “Serious AE Viral infection: Occurrences causally related to treatment/all” value (Age 0 to <2 Months) was 0/1. For the same molecule, the “Serious AE Viral upper respiratory tract infection: Deaths causally related to treatment/all” value (Age 0 to <2 Months) was 0/0, the “Serious AE Viral upper respiratory tract infection: Occurrences causally related to treatment/all” value (Age 0 to <2 Months) was 0/0 and the “Serious AE Vomiting: Deaths causally related to treatment/all” value (Age 0 to <2 Months) was 0/0. For the same molecule, the “Serious AE Vomiting: Occurrences causally related to treatment/all” value (Age 0 to <2 Months) was 0/2, the “Number of Deaths (All Causes)” value (Age 2 Months to <2 Years) was 1 and the “Serious AE Ammonia Increased: Deaths causally related to treatment/all” value (Age 2 Months to <2 Years) was 0/0. For the same molecule, the “Serious AE Ammonia Increased: Occurrences causally related to treatment/all” value (Age 2 Months to <2 Years) was 0/1, the “Serious AE Apnoeic Attack: Deaths causally related to treatment/all” value (Age 2 Months to <2 Years) was 0/0 and the “Serious AE Apnoeic Attack: Occurrences causally related to treatment/all” value (Age 2 Months to <2 Years) was 0/2. For the same molecule, the “Serious AE Asthma: Deaths causally related to treatment/all” value (Age 2 Months to <2 Years) was 0/0, the “Serious AE Asthma: Occurrences causally related to treatment/all” value (Age 2 Months to <2 Years) was 0/1 and the “Serious AE Atelectasis: Deaths causally related to treatment/all” value (Age 2 Months to <2 Years) was 0/0. For the same molecule, the “Serious AE Atelectasis: Occurrences causally related to treatment/all” value (Age 2 Months to <2 Years) was 0/0, the “Serious AE Bacteraemia: Deaths causally related to treatment/all” value (Age 2 Months to <2 Years) was 0/0 and the “Serious AE Bacteraemia: Occurrences causally related to treatment/all” value (Age 2 Months to <2 Years) was 0/0. The “Serious AE Cellulitis: Deaths causally related to treatment/all” value (Age 2 Months to <2 Years) was 0/0, the “Serious AE Cellulitis: Occurrences causally related to treatment/all” value (Age 2 Months to <2 Years) was 0/0 and the “Serious AE Croup infectious: Deaths causally related to treatment/all” value (Age 2 Months to <2 Years) was 0/0. For the same molecule, the “Serious AE Croup infectious: Occurrences causally related to treatment/all” value (Age 2 Months to <2 Years) was 0/1, the “Serious AE Cyanosis: Deaths causally related to treatment/all” value (Age 2 Months to <2 Years) was 0/0 and the “Serious AE Cyanosis: Occurrences causally related to treatment/all” value (Age 2 Months to <2 Years) was 0/2. The “Serious AE Dehydration: Deaths causally related to treatment/all” value (Age 2 Months to <2 Years) was 0/0, the “Serious AE Dehydration: Occurrences causally related to treatment/all” value (Age 2 Months to <2 Years) was 0/0 and the “Serious AE Device related infection: Deaths causally related to treatment/all” value (Age 2 Months to <2 Years) was 0/0. The “Serious AE Device related infection: Occurrences causally related to treatment/all” value (Age 2 Months to <2 Years) was 0/0 and the “Serious AE Feeding Disorder: Deaths causally related to treatment/all” value (Age 2 Months to <2 Years) was 0/0.
